From patent US20230348418A1, “ISOINDOLINONE COMPOUNDS” (Monte Rosa Therapeutics, Inc., priority 2021, published 2023)
Where two headings read alike, the source gives them in different places.

Target: T1, Full length wild-type cereblon CRBN (Homo sapiens, UniProt Q96SW2)
T1 construct: Full length wild-type cereblon CRBN (80.0 nM, 10 μL) was incubated in assay buffer
Test: Fluorescence polarization (FP) assay, cereblon binding
Source text: Compound activity was monitored in a fluorescence polarization (FP) homogeneous assay using 1-[5-({2-[2-(2-{[2-(2,6-dioxopiperidin-3-yl)-1,3-dioxo-2,3-dihydro-1H-isoindol-4-yl]oxy}acetamido)ethoxy]ethyl}carbamoyl)pentyl]-3,3-dimethyl-2-[(1E,3E)-5-[(2E)-1,3,3-trimethyl-5-sulfo-2,3-dihydro-1H-indol-2-ylidene]penta-1,3-dien-1-yl]-3H-indol-1-ium-5-sulfonate as a fluorescent probe. Unless otherwise stated, all reagents were purchased from Sigma Aldrich. […] Full length wild-type cereblon CRBN (80.0 nM, 10 μL) was incubated in assay buffer containing 20 mM HEPES (pH 8.0), […], 0.5 mM TCEP and 0.05% Tween 20 in the presence or absence of compound (300 nL). Inhibitors were stored as 10 mM DMSO stocks in an inert environment (low humidity, dark, low oxygen, room temperature) using the Storage Pod System. […] Following incubation at room temperature for 30 min, the assay was initiated by dispensing the probe to a final concentration of […] (2.5 nL of a 20 μM stock) using the Echo E5XX. […] The FP signal was subsequently normalized to the no-compound control (i.e., DMSO). Analysis and IC50 values were derived using Dotmatics (Dotmatics UK) software.

[1] = bounds stated in the text lists b2059-b2061, read-out: IC50 value
[2] = cereblon binding, class code, read-out: rFP IC50
[3] = IC50 value, bounds stated in the text lists b2059-b2061
[4] = rFP IC50 [nM], cereblon binding, class code

T1 sequence (Q96SW2 whole entry): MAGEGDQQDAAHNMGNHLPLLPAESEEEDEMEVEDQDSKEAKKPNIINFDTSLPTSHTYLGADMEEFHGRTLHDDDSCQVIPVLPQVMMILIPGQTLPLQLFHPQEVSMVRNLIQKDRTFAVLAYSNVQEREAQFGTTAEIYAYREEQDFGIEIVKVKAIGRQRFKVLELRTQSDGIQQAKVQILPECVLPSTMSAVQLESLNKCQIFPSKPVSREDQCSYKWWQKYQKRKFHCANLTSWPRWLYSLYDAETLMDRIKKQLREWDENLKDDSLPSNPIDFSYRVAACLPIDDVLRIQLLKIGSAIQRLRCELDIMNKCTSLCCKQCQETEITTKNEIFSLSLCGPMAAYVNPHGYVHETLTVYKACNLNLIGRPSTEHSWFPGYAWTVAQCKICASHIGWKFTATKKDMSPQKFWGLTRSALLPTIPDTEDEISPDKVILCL

IC50 [1] | IC50 [2] | SMILES | IC50 [3] | IC50 [4]
< 1100 nM |  | CN1CCC(Oc2cc(Cl)cc(NC(=O)OCc3ccc4c(c3)C(=O)N(C3CCC(=O)NC3=O)C4)c2)C1 (stereo not drawn) [Compound 46] |  | 
< 1100 nM |  | O=C1CCC(N2Cc3ccc(COC(=O)Nc4cc(Cl)cc(OCC5CCNC5)c4)cc3C2=O)C(=O)N1 (stereo not drawn) [Compound 16] |  | 
< 1700 nM | 500 to 1100 nM | O=C1CCC(N2Cc3ccc(COC(=O)NC4CCCC4)cc3C2=O)C(=O)N1 (stereo not drawn) [Compound 29] |  | 
< 1700 nM | 500 to 1100 nM | O=C1CCC(N2Cc3ccc(COC(=O)Nc4cccc(OC5CC5)c4)cc3C2=O)C(=O)N1 (stereo not drawn) [Compound 93] |  | 
< 1700 nM | 500 to 1100 nM | CC(NC(=O)OCc1ccc2c(c1)C(=O)N(C1CCC(=O)NC1=O)C2)c1ccccc1 (stereo not drawn) [Compound 102] |  | 
< 1100 nM | 500 to 1100 nM | CC(C)(C)c1ccc(NC(=O)OCc2ccc3c(c2)C(=O)N(C2CCC(=O)NC2=O)C3)nc1 (stereo not drawn) [Compound 131, (2-(2,6-dioxopiperidin-3-yl)-3-oxoisoindolin-5-yl)methyl (5-(tert-butyl)pyridin-2-yl)carbamate] |  | 
< 1100 nM |  | O=C1CCC(N2Cc3ccc(COC(=O)NC45CC(c6ccccc6)(C4)C5)cc3C2=O)C(=O)N1 (stereo not drawn) [Compound 126, (2-(2,6-dioxopiperidin-3-yl)-3-oxoisoindolin-5-yl)methyl (3-phenylbicyclo[1.1.1]pentan-1-yl carbamate] |  | 
< 1100 nM |  | O=C1CCC(N2Cc3ccc(COC(=O)Nc4ccc(-c5ccccc5F)nc4)cc3C2=O)C(=O)N1 (stereo not drawn) [Compound 84] |  | 
< 1700 nM | 1100 to 1700 nM | O=C1CCC(N2Cc3ccc(COC(=O)NC4CCCCC4)cc3C2=O)C(=O)N1 (stereo not drawn) [Compound 28] |  | 
< 1700 nM | 500 to 1100 nM | O=C1CCC(N2Cc3ccc(COC(=O)Nc4cnc5c(c4)CCC5)cc3C2=O)C(=O)N1 (stereo not drawn) [Compound 53] |  | 
< 1100 nM | 500 to 1100 nM | O=C1CCC(N2Cc3ccc(COC(=O)Nc4ccccc4)cc3C2=O)C(=O)N1 (stereo not drawn) [Compound 138, (2-(2,6-dioxopiperidin-3-yl)-3-oxoisoindolin-5-yl)methyl phenylcarbamate] |  | 
< 1700 nM | 500 to 1100 nM | Cc1c(Cl)cc(NC(=O)OCc2ccc3c(c2)C(=O)N(C2CCC(=O)NC2=O)C3)cc1OC1CCNC1 (stereo not drawn) [Compound 44] |  | 
< 1100 nM |  | Cc1cc(C)c(F)c(NC(=O)OCc2ccc3c(c2)C(=O)N(C2CCC(=O)NC2=O)C3)c1 (stereo not drawn) [Compound 122, (2-(2,6-dioxopiperidin-3-yl)-3-oxoisoindolin-5-yl)methyl (2-fluoro-3,5-dimethylphenyl)carbamate] |  | 
 |  | Cc1cc(NC(=O)OCc2ccc3c(c2)C(=O)N(C2CCC(=O)NC2=O)C3)cc(C)c1C#N (stereo not drawn) [Compound 108] | < 1100 nM | 
< 1700 nM | 500 to 1100 nM | Cc1c(Cl)cc(NC(=O)OCc2ccc3c(c2)C(=O)N(C2CCC(=O)NC2=O)C3)cc1CN1CC2CC1CO2 (stereo not drawn) [Compound 13] |  | 
< 1700 nM | 500 to 1100 nM | COc1ccccc1CNC(=O)OCc1ccc2c(c1)C(=O)N(C1CCC(=O)NC1=O)C2 (stereo not drawn) [Compound 97] |  | 
< 1700 nM | 1100 to 1700 nM | O=C1CCC(N2Cc3ccc(COC(=O)Nc4ccc5c(c4)OC(F)(F)O5)cc3C2=O)C(=O)N1 (stereo not drawn) [Compound 79] |  | 
 |  | Cc1ccc(NC(=O)OCc2ccc3c(c2)C(=O)N(C2CCC(=O)NC2=O)C3)cc1C (stereo not drawn) [Compound 129] | < 1100 nM | 
< 1100 nM |  | Cc1c(Cl)cc(NC(=O)OCc2ccc3c(c2)C(=O)N(C2CCC(=O)NC2=O)C3)cc1OCC1CCN(C)C1 (stereo not drawn) [Compound 70] |  | 
< 1700 nM | 1100 to 1700 nM | O=C1CCC(N2Cc3ccc(COC(=O)Nc4cc(OCCN5CCOCC5)cc(OC(F)F)c4)cc3C2=O)C(=O)N1 (stereo not drawn) [Compound 96] |  | 
< 1100 nM |  | O=C1CCC(N2Cc3ccc(COC(=O)Nc4cc(OC(F)(F)F)ccn4)cc3C2=O)C(=O)N1 (stereo not drawn) [Compound 59] |  | 
< 1700 nM | 500 to 1100 nM | Cc1cc(C)cc(NC(=O)OCc2ccc3c(c2)C(=O)N(C2CCC(=O)NC2=O)C3)c1 (stereo not drawn) [Compound 8] |  | 
< 500 nM | 500 to 1100 nM | CCOc1cc(NC(=O)OCc2ccc3c(c2)C(=O)N(C2CCC(=O)NC2=O)C3)ccc1C (stereo not drawn) [Compound 33] |  | 
< 1700 nM | 1100 to 1700 nM | Cc1cc(F)cc(NC(=O)OCc2ccc3c(c2)C(=O)N(C2CCC(=O)NC2=O)C3)c1 (stereo not drawn) [Compound 146, (2-(2,6-dioxopiperidin-3-yl)-3-oxoisoindolin-5-yl)methyl (3-fluoro-5-methylphenyl) carbamate] |  | 
< 1100 nM | 500 to 1100 nM | Cc1cc(C)c(NC(=O)OCc2ccc3c(c2)C(=O)N(C2CCC(=O)NC2=O)C3)cc1Cl (stereo not drawn) [Compound 123, (2-(2,6-dioxopiperidin-3-yl)-3-oxoisoindolin-5-yl) methyl (5-chloro-2,4-dimethylphenyl)carbamate] |  | 

IC50 [1] | IC50 [2] | SMILES | IC50 [3] | IC50 [4]
< 1700 nM | 500 to 1100 nM | COc1ccccc1-c1ccc(NC(=O)OCc2ccc3c(c2)C(=O)N(C2CCC(=O)NC2=O)C3)cn1 (stereo not drawn) [Compound 87] |  | 
< 1700 nM | 500 to 1100 nM | Cc1cc(NC(=O)OCc2ccc3c(c2)C(=O)N(C2CCC(=O)NC2=O)C3)cc(C)n1 (stereo not drawn) [Compound 7] |  | 
< 1700 nM | 500 to 1100 nM | CC1CCCCN1c1ccc(NC(=O)OCc2ccc3c(c2)C(=O)N(C2CCC(=O)NC2=O)C3)cn1 (stereo not drawn) [Compound 77] |  | 
< 1700 nM | 500 to 1100 nM | COc1cc(NC(=O)OCc2ccc3c(c2)C(=O)N(C2CCC(=O)NC2=O)C3)cnc1C (stereo not drawn) [Compound 51] |  | 
< 1700 nM | 500 to 1100 nM | Cc1c(F)cc(NC(=O)OCc2ccc3c(c2)C(=O)N(C2CCC(=O)NC2=O)C3)cc1CN1CCOCC1 (stereo not drawn) [Compound 41] |  | 
 |  | Cc1ccc(OC(F)(F)F)cc1NC(=O)OCc1ccc2c(c1)C(=O)N(C1CCC(=O)NC1=O)C2 (stereo not drawn) [Compound 128] | < 1100 nM | 500 to 1100 nM
< 1100 nM |  | O=C1CCC(N2Cc3ccc(COC(=O)N4CCCCC4)cc3C2=O)C(=O)N1 (stereo not drawn) [Compound 23] |  | 
< 1700 nM | 1100 to 1700 nM | COc1ccc(Cl)cc1NC(=O)OCc1ccc2c(c1)C(=O)N(C1CCC(=O)NC1=O)C2 (stereo not drawn) [Compound 14] |  | 
< 1700 nM | 1100 to 1700 nM | Cc1c(F)cc(NC(=O)OCc2ccc3c(c2)C(=O)N(C2CCC(=O)NC2=O)C3)cc1F (stereo not drawn) [Compound 127, (2-(2,6-dioxopiperidin-3-yl)-3-oxoisoindolin-5-yl)methyl (3,5-difluoro-4-methylphenyl)carbamate] |  | 
< 1100 nM | 500 to 1100 nM | CC(C)(C)c1cccc(NC(=O)OCc2ccc3c(c2)C(=O)N(C2CCC(=O)NC2=O)C3)c1 (stereo not drawn) [Compound 153, (2-(2,6-dioxopiperidin-3-yl)-3-oxoisoindolin-5-yl)methyl (3-(tert-butyl)phenyl)carbamate] |  | 
 |  | O=C1CCC(N2Cc3ccc(COC(=O)Nc4ccnc(-c5ccccc5)c4)cc3C2=O)C(=O)N1 (stereo not drawn) [Compound 149] | < 1100 nM | 
< 1100 nM |  | CN1CCN(c2ccc(NC(=O)OCc3ccc4c(c3)C(=O)N(C3CCC(=O)NC3=O)C4)cn2)CC1 (stereo not drawn) [Compound 82] |  | 
< 1100 nM | 500 to 1100 nM | CC(C)(C)C12CC(NC(=O)OCc3ccc4c(c3)C(=O)N(C3CCC(=O)NC3=O)C4)(C1)C2 (stereo not drawn) [Compound 120, (2-(2,6-dioxopiperidin-3-yl)-3-oxoisoindolin-5-yl)methyl (3-(tert-butyl)bicyclo[1.1.1]pentan-1-yl)carbamate] |  | 
< 1700 nM | 1100 to 1700 nM | O=C1CCC(N2Cc3ccc(COC(=O)Nc4cc(CN5CCOCC5)cc(OC(F)F)c4)cc3C2=O)C(=O)N1 (stereo not drawn) [Compound 95] |  | 
< 1700 nM | 500 to 1100 nM | O=C1CCC(N2Cc3ccc(COC(=O)Nc4cc(CN5CC6CC5CO6)cc(OC(F)F)c4)cc3C2=O)C(=O)N1 (stereo not drawn) [Compound 100] |  | 
< 1100 nM |  | CN1CCC(COc2cc(Cl)cc(NC(=O)OCc3ccc4c(c3)C(=O)N(C3CCC(=O)NC3=O)C4)c2)C1 (stereo not drawn) [Compound 40] |  | 
< 1100 nM | 500 to 1100 nM | Cc1ccc(NC(=O)OCc2ccc3c(c2)C(=O)N(C2CCC(=O)NC2=O)C3)cc1F (stereo not drawn) [Compound 133, (2-(2,6-dioxopiperidin-3-yl)-3-oxoisoindolin-5-yl)methyl (3-fluoro-4-methylphenyl)carbamate] |  | 
< 1700 nM | 500 to 1100 nM | Cc1ncc(NC(=O)OCc2ccc3c(c2)C(=O)N(C2CCC(=O)NC2=O)C3)cc1OC(F)(F)F (stereo not drawn) [Compound 91] |  | 
< 1100 nM |  | O=C1CCC(N2Cc3ccc(COC(=O)Nc4ccc(N5CCC5)nc4)cc3C2=O)C(=O)N1 (stereo not drawn) [Compound 107] |  | 
< 1700 nM | 500 to 1100 nM | O=C1CCC(N2Cc3ccc(COC(=O)Nc4ccc5c(c4)OCCC5)cc3C2=O)C(=O)N1 (stereo not drawn) [Compound 92] |  | 
< 1700 nM | 500 to 1100 nM | O=C1CCC(N2Cc3ccc(COC(=O)Nc4cc(OCCN5CCOCC5)cc(OC(F)(F)F)c4)cc3C2=O)C(=O)N1 (stereo not drawn) [Compound 106] |  | 
< 1700 nM | 500 to 1100 nM | CCc1cc(NC(=O)OCc2ccc3c(c2)C(=O)N(C2CCC(=O)NC2=O)C3)cnc1C (stereo not drawn) [Compound 55] |  | 
 |  | O=C1CCC(N2Cc3ccc(COC(=O)NC4COC(c5ccccc5)OC4)cc3C2=O)C(=O)N1 (stereo not drawn) [Compound 130] | < 1100 nM | 500 to 1100 nM
< 1700 nM | 500 to 1100 nM | Cc1c(Cl)cc(NC(=O)OCc2ccc3c(c2)C(=O)N(C2CCC(=O)NC2=O)C3)cc1CN1CCOCC1 (stereo not drawn) [Compound 2] |  | 
